ChEMBL document CHEMBL1130494, “Design and synthesis of a targeted set of aromatic amino acid derivatives for identification of new lead compounds” (Bioorg Med Chem Lett, 1997)

Experiments:
[1] = target: Neuromedin-B receptor (Homo sapiens, UniProt P28336); assay: Binding affinity for human neuromedin B(hNMB) receptor expressed in CHO cells; type: cell-based
[2] = target: T1, Neuromedin-K receptor (Homo sapiens, UniProt P29371); assay: Concentration required for binding affinity to Tachykinin receptor 3 in chinese hamster ovary cells; type: cell-based, CHO
T1 sequence (P29371 whole entry): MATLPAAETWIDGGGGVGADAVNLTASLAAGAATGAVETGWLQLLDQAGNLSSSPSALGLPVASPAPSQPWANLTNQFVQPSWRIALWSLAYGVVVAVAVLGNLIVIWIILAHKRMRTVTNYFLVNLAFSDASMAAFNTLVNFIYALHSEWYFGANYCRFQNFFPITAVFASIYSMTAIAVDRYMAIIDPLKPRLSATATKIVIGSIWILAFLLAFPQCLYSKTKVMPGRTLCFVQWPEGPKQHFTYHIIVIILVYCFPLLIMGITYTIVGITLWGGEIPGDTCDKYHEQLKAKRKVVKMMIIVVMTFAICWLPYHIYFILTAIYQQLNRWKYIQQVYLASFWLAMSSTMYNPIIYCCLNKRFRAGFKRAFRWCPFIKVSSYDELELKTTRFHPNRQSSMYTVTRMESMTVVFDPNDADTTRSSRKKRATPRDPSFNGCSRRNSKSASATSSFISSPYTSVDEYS

[3] = target: T2, Gastrin/cholecystokinin type B receptor (Mus musculus, UniProt P56481); assay: Concentration required for binding affinity to neuropeptide (CCK-B) receptor in mouse cerebral cortex; type: tissue-based
T2 sequence (P56481 whole entry): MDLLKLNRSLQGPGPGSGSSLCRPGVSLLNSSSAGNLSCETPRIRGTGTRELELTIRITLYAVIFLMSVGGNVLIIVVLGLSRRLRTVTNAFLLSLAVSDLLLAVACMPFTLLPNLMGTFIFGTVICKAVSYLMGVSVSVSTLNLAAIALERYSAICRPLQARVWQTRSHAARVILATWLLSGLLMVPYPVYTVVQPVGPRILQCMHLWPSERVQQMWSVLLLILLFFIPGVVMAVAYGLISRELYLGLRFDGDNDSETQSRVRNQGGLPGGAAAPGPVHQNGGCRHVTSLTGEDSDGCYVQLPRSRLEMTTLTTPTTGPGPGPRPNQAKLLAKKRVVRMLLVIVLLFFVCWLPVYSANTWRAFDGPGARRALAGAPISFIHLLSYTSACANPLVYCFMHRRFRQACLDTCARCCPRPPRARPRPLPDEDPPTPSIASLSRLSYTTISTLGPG

[4] = target: T3, Substance-K receptor (Mesocricetus auratus, UniProt P51144); assay: Concentration required for binding affinity to neurokinin (NK2) receptor in hamster urinary bladder
T3 sequence (P51144 whole entry): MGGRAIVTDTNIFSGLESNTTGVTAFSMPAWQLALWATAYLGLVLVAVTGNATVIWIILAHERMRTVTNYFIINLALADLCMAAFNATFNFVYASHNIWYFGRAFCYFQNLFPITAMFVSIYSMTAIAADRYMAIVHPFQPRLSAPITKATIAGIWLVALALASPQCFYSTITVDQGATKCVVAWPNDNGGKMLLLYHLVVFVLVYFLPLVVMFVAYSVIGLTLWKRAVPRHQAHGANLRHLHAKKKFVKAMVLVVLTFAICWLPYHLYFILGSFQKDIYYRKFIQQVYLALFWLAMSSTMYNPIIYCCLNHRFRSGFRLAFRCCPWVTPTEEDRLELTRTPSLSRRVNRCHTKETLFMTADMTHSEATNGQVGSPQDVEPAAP

[5] = target: T4, Cholecystokinin receptor type A (Rattus norvegicus, UniProt P30551); assay: Concentration required for binding affinity to neuropeptide (CCK-A) receptor in rat pancrea
T4 sequence (P30551 whole entry): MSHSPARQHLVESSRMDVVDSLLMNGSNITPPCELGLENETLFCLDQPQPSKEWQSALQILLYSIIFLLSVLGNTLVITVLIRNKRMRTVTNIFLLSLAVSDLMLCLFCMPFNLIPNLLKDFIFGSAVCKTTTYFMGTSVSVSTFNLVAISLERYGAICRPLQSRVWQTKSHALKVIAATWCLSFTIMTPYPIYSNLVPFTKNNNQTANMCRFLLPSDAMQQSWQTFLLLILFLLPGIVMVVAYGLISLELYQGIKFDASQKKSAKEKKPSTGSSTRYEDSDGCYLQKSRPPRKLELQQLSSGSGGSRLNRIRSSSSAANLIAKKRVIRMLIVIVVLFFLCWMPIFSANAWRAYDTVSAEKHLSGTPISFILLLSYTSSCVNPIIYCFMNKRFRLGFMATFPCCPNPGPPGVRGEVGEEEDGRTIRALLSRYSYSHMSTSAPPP

[6] = target: Substance-P receptor (Homo sapiens, UniProt P25103); assay: Concentration required for binding affinity to neurokinin (NK1) receptor in human IM9 cells; type: cell-based, IM-9
Sequence of Substance-P receptor (P25103 whole entry): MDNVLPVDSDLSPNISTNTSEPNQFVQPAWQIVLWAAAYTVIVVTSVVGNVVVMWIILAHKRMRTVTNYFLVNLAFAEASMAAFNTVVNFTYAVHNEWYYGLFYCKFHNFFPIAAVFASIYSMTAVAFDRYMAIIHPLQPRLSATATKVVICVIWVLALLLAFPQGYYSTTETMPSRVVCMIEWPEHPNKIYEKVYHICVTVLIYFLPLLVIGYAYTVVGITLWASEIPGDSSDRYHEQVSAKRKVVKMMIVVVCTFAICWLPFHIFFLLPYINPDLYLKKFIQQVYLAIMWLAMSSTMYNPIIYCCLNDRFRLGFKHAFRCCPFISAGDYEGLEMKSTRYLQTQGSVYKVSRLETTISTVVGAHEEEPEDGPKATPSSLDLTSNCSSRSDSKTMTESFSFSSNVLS

Sequence of Neuromedin-B receptor (P28336 whole entry): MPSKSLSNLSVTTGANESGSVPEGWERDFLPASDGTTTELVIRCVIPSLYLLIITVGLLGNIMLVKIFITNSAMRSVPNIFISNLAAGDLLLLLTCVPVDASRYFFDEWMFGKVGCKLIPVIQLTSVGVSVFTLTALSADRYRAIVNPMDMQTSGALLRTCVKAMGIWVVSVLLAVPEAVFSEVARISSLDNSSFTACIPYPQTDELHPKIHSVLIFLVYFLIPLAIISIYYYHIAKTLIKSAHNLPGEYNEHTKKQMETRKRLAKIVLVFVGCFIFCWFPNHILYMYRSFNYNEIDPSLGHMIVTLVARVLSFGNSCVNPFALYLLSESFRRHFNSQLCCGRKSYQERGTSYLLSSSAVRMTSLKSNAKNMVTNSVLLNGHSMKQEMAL

Ki [1] [µM] | SMILES | also measured
3.9 | CC(C)CCNC(=O)C(Cc1c[nH]c2ccccc12)NC(=O)OCc1c[nH]cn1 (stereo unspecified) | –
> 10 | CC(C)COC(=O)N[C@@H](Cc1c[nH]c2ccccc12)C(=O)NCCc1cnc[nH]1 | –
2.7 | CC(C)CCNC(=O)[C@H](Cc1c[nH]c2ccccc12)NC(=O)OCCc1c[nH]c2ccccc12 | –
> 10 | CC(C)OC(=O)N[C@@H](Cc1c[nH]c2ccccc12)C(=O)NCCc1c[nH]c2ccccc12 | IC50 [2]: 9.42 µM
> 10 | O=C(O)CCNC(=O)[C@H](Cc1c[nH]c2ccccc12)NC(=O)OCCc1c[nH]c2ccccc12 | –
> 10 | O=C(N[C@@H](Cc1c[nH]c2ccccc12)C(=O)NCCO)OCc1ccccc1 | –
0.037 | CC(C)CNC(=O)C(Cc1c[nH]c2ccccc12)NC(=O)OCc1cn(C(c2ccccc2)(c2ccccc2)c2ccccc2)cn1 (stereo unspecified) | –
> 10 | O=C(O)COC(=O)N[C@@H](Cc1c[nH]c2ccccc12)C(=O)NCCc1c[nH]c2ccccc12 | –
6.1 | CC(C)CCNC(=O)[C@H](Cc1c[nH]c2ccccc12)NC(=O)OCc1ccccc1 | IC50 [3]: 2.12 µM
> 10 | CC(C)CNC(=O)[C@H](Cc1c[nH]c2ccccc12)NC(=O)OCC(C)C | –
0.98 | O=C(N[C@@H](Cc1c[nH]c2ccccc12)C(=O)NCCc1c[nH]c2ccccc12)OCCc1c[nH]c2ccccc12 | –
> 10 | O=C(N[C@@H](Cc1c[nH]c2ccccc12)C(=O)NCCc1c[nH]cn1)OCc1ccccc1 | –
> 10 | CC(C)CCNC(=O)[C@H](Cc1c[nH]c2ccccc12)NC(=O)OCC(C)C | –
2.6 | O=C(N[C@@H](Cc1c[nH]c2ccccc12)C(=O)NCCc1ccccc1)OCc1ccccc1 | IC50 [4]: 3.27 µM
> 10 | CC(C)COC(=O)N[C@@H](Cc1c[nH]c2ccccc12)C(=O)NCCO | –
> 10 | NCCCCCNC(=O)[C@H](Cc1c[nH]c2ccccc12)NC(=O)OCc1ccccc1 | –
8.9 | NCCCCOC(=O)N[C@@H](Cc1c[nH]c2ccccc12)C(=O)NCCc1c[nH]c2ccccc12 | –
> 10 | NCCCCOC(=O)N[C@@H](Cc1c[nH]c2ccccc12)C(=O)NCCC(=O)O | –
> 10 | COC(=O)N[C@@H](Cc1c[nH]c2ccccc12)C(=O)NCCc1c[nH]c2ccccc12 | –
> 10 | COC(=O)N[C@@H](Cc1c[nH]c2ccccc12)C(=O)NCCC(C)C | –
> 10 | COC(=O)N[C@@H](Cc1c[nH]c2ccccc12)C(=O)NCCc1cnc[nH]1 | –

Ki [1] [µM] | SMILES | also measured
> 10 | O=C(O)COC(=O)N[C@@H](Cc1c[nH]c2ccccc12)C(=O)NCCO | –
> 10 | NCCCCOC(=O)N[C@@H](Cc1c[nH]c2ccccc12)C(=O)NCCc1cnc[nH]1 | –
> 10 | NCCCCCNC(=O)[C@H](Cc1c[nH]c2ccccc12)NC(=O)OCCCCN | –
> 10 | NCCCCOC(=O)N[C@@H](Cc1c[nH]c2ccccc12)C(=O)NCCO | –
> 10 | NCCCCCNC(=O)[C@H](Cc1c[nH]c2ccccc12)NC(=O)OCC(=O)O | –
2.7 | O=C(N[C@@H](Cc1c[nH]c2ccccc12)C(=O)NCCc1ccccc1)OCc1c[nH]cn1 | –
> 10 | CC(C)OC(=O)N[C@@H](Cc1c[nH]c2ccccc12)C(=O)NCCc1ccccc1 | –
5 | O=C(N[C@@H](Cc1c[nH]c2ccccc12)C(=O)NCCc1c[nH]cn1)OCCc1c[nH]c2ccccc12 | –
> 10 | CC(C)CCNC(=O)[C@H](Cc1c[nH]c2ccccc12)NC(=O)OCC(=O)O | –
> 10 | CC(C)OC(=O)N[C@@H](Cc1c[nH]c2ccccc12)C(=O)NCCc1c[nH]cn1 | –
> 10 | COC(=O)N[C@@H](Cc1c[nH]c2ccccc12)C(=O)NCCC(=O)O | –
> 10 | COC(=O)N[C@@H](Cc1c[nH]c2ccccc12)C(=O)NCCO | –
> 10 | CC(C)CNC(=O)[C@H](Cc1c[nH]c2ccccc12)NC(=O)OCCCCN | –
> 10 | COC(=O)N[C@@H](Cc1c[nH]c2ccccc12)C(=O)NCCCCCN | –
7.8 | NCCCCCNC(=O)[C@H](Cc1c[nH]c2ccccc12)NC(=O)OCCc1c[nH]c2ccccc12 | –
1.1 | O=C(N[C@@H](Cc1c[nH]c2ccccc12)C(=O)NCCc1ccccc1)OCCc1c[nH]c2ccccc12 | –
> 10 | CC(C)CNC(=O)[C@H](Cc1c[nH]c2ccccc12)NC(=O)OCc1c[nH]cn1 | –
3.5 | CC(C)CNC(=O)[C@H](Cc1c[nH]c2ccccc12)NC(=O)OCCc1c[nH]c2ccccc12 | –
3.7 | O=C(N[C@@H](Cc1c[nH]c2ccccc12)C(=O)NCCc1c[nH]c2ccccc12)OCc1c[nH]cn1 | –
> 10 | CC(C)OC(=O)N[C@@H](Cc1c[nH]c2ccccc12)C(=O)NCCCCCN | –
4.3 | CC(C)COC(=O)N[C@@H](Cc1c[nH]c2ccccc12)C(=O)NCCc1ccccc1 | –

Ki [1] [µM] | SMILES | also measured
2.6 | O=C(NC(Cc1c[nH]c2ccccc12)C(=O)NCCc1ccccc1)OCc1cnc[nH]1 (stereo unspecified) | –
2.8 | O=C(N[C@@H](Cc1c[nH]c2ccccc12)C(=O)NCCc1c[nH]c2ccccc12)OCc1ccccc1 | IC50 [5]: 0.45 µM
> 10 | CC(C)CNC(=O)[C@H](Cc1c[nH]c2ccccc12)NC(=O)OC(C)C | –
> 10 | CC(C)CCNC(=O)[C@H](Cc1c[nH]c2ccccc12)NC(=O)OC(C)C | –
> 10 | CC(C)COC(=O)N[C@@H](Cc1c[nH]c2ccccc12)C(=O)NCCCCCN | –
> 10 | O=C(O)CCNC(=O)[C@H](Cc1c[nH]c2ccccc12)NC(=O)OCc1ccccc1 | –
> 10 | CC(C)COC(=O)N[C@@H](Cc1c[nH]c2ccccc12)C(=O)NCCC(=O)O | –
3.9 | CC(C)CCNC(=O)[C@H](Cc1c[nH]c2ccccc12)NC(=O)OCc1cnc[nH]1 | –
> 10 | O=C(N[C@@H](Cc1c[nH]c2ccccc12)C(=O)NCCO)OCCc1c[nH]c2ccccc12 | –
> 10 | CC(C)OC(=O)N[C@@H](Cc1c[nH]c2ccccc12)C(=O)NCCC(=O)O | –
> 10 | CC(C)CNC(=O)[C@H](Cc1c[nH]c2ccccc12)NC(=O)OCc1ccccc1 | –
4.7 | CC(C)COC(=O)N[C@@H](Cc1c[nH]c2ccccc12)C(=O)NCCc1c[nH]c2ccccc12 | IC50 [6]: 0.43 µM
> 10 | CC(C)OC(=O)N[C@@H](Cc1c[nH]c2ccccc12)C(=O)NCCO | –
> 10 | CC(C)CNC(=O)[C@H](Cc1c[nH]c2ccccc12)NC(=O)OCC(=O)O | –
> 10 | COC(=O)N[C@@H](Cc1c[nH]c2ccccc12)C(=O)NCC(C)C | –
> 10 | CC(C)CCNC(=O)[C@H](Cc1c[nH]c2ccccc12)NC(=O)OCCCCN | –
> 10 | COC(=O)N[C@@H](Cc1c[nH]c2ccccc12)C(=O)NCCc1ccccc1 | –
> 10 | O=C(O)COC(=O)N[C@@H](Cc1c[nH]c2ccccc12)C(=O)NCCc1ccccc1 | –
> 10 | NCCCCOC(=O)N[C@@H](Cc1c[nH]c2ccccc12)C(=O)NCCc1ccccc1 | –
